This passage reports TGI results from PubChem BioAssay (NCI).

Molecules are shown by their SMILES.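 Where inhibition never reached the appropriate level, the endpoint shown equals the highest concentration tested. Otherwise, values were interpolated linearly from a five-concentration, 48-hour dose response in 96-well plates. TGI: concentration producing complete growth inhibition.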 A value given as a limit tells only on which side of the number the result lay.

Common to all, as to assay: NCI tumour cell line growth inhibition, 48 h
The test system of assay [1] is HCC-2998 colon.
Assay [2] has as its system OVCAR-4 ovarian.
In assay [3] the test system is CCRF-CEM leukemia.
For assay [4], the system named is HOP-62 NSCLC.
Assay [5] relates to HCT-15 colon.
The test system of assay [6] is NCI-H226 lung.
Assay [7] relates to SF-295 CNS.
Assay [8] deals with IGROV1 ovarian.
Assay [9] has as its system U251 CNS.

Turning to `O=C(CNc1ccccc1[N+](=O)[O-])Nn1c(-c2ccccc2)nc2ccccc2c1=O`, the TGI in assay [1] turned out to be 26.3 µM; in assay [2], 32.1 µM; in assay [3] it was 43.6 µM; in assay [4] it was 42.8 µM; in [5], 44.3 µM; in [6] it was 93 µM. For the same compound, the figures for the TGI in assay [7], in assay [8] and in [9] were 46.5 µM, 34.8 µM and 40.6 µM, respectively.

For the compound `CCN(CC)CCNC(=O)c1cn2c(ccc3sc4ccccc4c(=O)c32)n1`, the TGI in assay [1] was determined as 24.3 µM; in assay [2] it was 22.8 µM; in assay [3] it was 25.3 µM; in [4], 21.4 µM; in [5] it was 21.2 µM; in assay [6], 40.6 µM. Also, the TGI in assay [7] was 23.9 µM; in [8], 21.3 µM; in [9], above 51.6 µM.

For `O=C(Cc1ccccc1)Nn1c(-c2ccccc2)nc2ccccc2c1=O`, the TGI in assay [1], in assay [2], in assay [3], in assay [4], in [6] and in assay [7] was above 100 µM throughout. Besides, the TGI in assay [8] and in assay [9] was above 100 µM in each case.

Take `CC1C2(C)OC(=N)C(C#N)(C(c3cccc([N+](=O)[O-])c3)O2)C1(C#N)C#N` (configuration not stated): the TGI in [3] was 52.2 µM; in [6] it was above 100 µM; in assay [7], above 100 µM; in [8], above 100 µM; in [9] it was 53.8 µM.

With `Cc1noc(NC2=CC(=O)C(=O)c3ccccc32)c1C`, the TGI in assay [2], in assay [4], in assay [5], in assay [6], in assay [7] and in assay [9] was above 100 µM throughout.

For the compound `CC[C@H]1C=CCC[C@@]2(C[C@@H]3CC[C@H]4[C@@H](C(=O)OCCCCCCCCCCCCCCCC(=O)N(CCCN)C[C@@H](O)CCN)[C@@]5(CCC[C@@H](C)O5)NC(=[N+]34)N2)O1`, the TGI is 3.12 µM in [1]; above 10 µM in assay [2]; 3.06 µM in assay [4]; above 10 µM in assay [5]; 3.32 µM in assay [6]; 3.68 µM in assay [7]. The figures for the TGI in assay [8] and in [9] were 3.13 µM and 3.05 µM, respectively.

For `COc1ccc(CN=C(N)N)c2ccccc12`, the TGI was above 100 µM in assay [3]; above 100 µM in assay [4]; above 100 µM in assay [5]; above 100 µM in assay [6]; 36.7 µM in assay [7]; 74.7 µM in assay [9].

`CCCCCCCCCCCCCCCCOC[C@@H](COC(c1ccccc1)(c1ccccc1)c1ccccc1)O[P+](=S)OC` (some centres not stated): the TGI stood at 22.9 µM in assay [2]; 30.1 µM in assay [3]; 22.4 µM in assay [5]; 42.5 µM in assay [6]; 6.88 µM in [7]; 36 µM in [8]. The compound also gave a TGI in assay [9] of 17.6 µM.

With `CCOP(=O)(OCC)C(N)c1ccc(Cl)cc1` (configuration not stated), the TGI in assay [2], in [3], in [5], in assay [8] and in assay [9] was above 100 µM throughout.

With `COc1cc2cc(C(=O)N3CC(CCl)c4c3cc(N)c3ccccc43)[nH]c2c(OC)c1OC` (configuration not stated), the TGI is below 0.01 µM in [1]; below 0.045 µM in [2]; below 0.01 µM in [3]; below 0.0109 µM in assay [4]; 1.58 µM in [5]; 1.13 µM in assay [6]. In addition, the TGI in assay [8] came to 0.0401 µM; in assay [9], 0.0998 µM.

Take `COc1c(O)cc2c(c1O)C(=O)/C(=C/c1ccc(O)cc1)CO2`: the TGI in [2] is 60.7 µM; in assay [3] it was 65.3 µM; in assay [4] it was 76.3 µM; in [5] it was 38.2 µM; in assay [7] it was above 100 µM; in assay [8], 80.8 µM. In [9], this compound returned a TGI above 100 µM.

`Cc1ccc(/C(O)=C/c2nc3ccccc3s/c2=N/CS(=O)(=O)c2ccc(C)cc2)cc1`: the TGI in assay [1], in [2], in [3], in assay [4], in assay [5] and in [7] was above 10 µM throughout. Also, the TGI in [8] and in assay [9] was above 10 µM each time.

As to `COc1cc2c(cc1OC)C1(COc3cc(O)c(O)c(O)c3C1=O)C2` (configuration not stated), the TGI in [2], in [3], in assay [4], in assay [5], in assay [6] and in [7] was above 50 µM throughout. Further, the TGI in [8] and in assay [9] was above 50 µM in each case.

As for `Clc1ccc(C2Nc3ccccc3C3=NCCN32)cc1` (configuration not stated), the TGI in assay [2] was above 100 µM; in assay [3] it was above 100 µM; in assay [4] it was above 100 µM; in [5] it was above 100 µM; in assay [7], 35.4 µM; in assay [8], 49.2 µM. The compound also displayed a TGI in assay [9] of 78.6 µM.

On to `COC(C)(C)C1(O)CCC(C)CC1=O` (configuration not stated), for which the TGI in assay [1], in assay [2], in assay [4], in [5], in assay [7] and in assay [8] was above 100 µM throughout. The TGI in assay [9] is above 100 µM.

As for `FC1C2=C(SC1(F)F)C1CCC2C1` (configuration not stated), the TGI in assay [2], in [5], in [6], in assay [7] and in assay [8] was above 100 µM each time.

Turning to `Cc1csc(/N=C\c2c(O)c3ccccc3oc2=O)n1`, the TGI in assay [2], in assay [3], in assay [5], in [6], in [8] and in assay [9] was above 100 µM in each case.

Take `COc1cc2c(=O)cnoc2cc1O`: the TGI in assay [1], in assay [2], in [3], in assay [5], in assay [6] and in [7] was above 100 µM in each case. The TGI in assay [8] and in assay [9] was above 100 µM in each case.
